Counter-ions that a name gives are not always drawn.
The molecules below were run against T1, 5-HT1F receptor (Homo sapiens, UniProt P30939) (assay: biochemical). Conditions: Table I; displacement of 4.5-5.5 nM [3H]5-HT, 37° C., 30 minutes; read-out: 5-HT1F BINDING Ki.
T1 sequence (P30939 1-366): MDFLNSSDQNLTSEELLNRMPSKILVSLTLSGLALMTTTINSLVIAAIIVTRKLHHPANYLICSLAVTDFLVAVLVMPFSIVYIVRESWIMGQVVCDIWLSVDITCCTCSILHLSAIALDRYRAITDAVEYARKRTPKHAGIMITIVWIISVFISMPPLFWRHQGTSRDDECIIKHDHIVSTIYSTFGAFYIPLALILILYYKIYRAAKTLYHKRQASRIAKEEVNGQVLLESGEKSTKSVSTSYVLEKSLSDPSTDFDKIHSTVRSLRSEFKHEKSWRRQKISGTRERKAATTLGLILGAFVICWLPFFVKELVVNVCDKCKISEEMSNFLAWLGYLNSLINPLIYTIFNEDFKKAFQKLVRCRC

**Q.** For `Clc1ccc2[nH]cc(C3CCN(CCc4cnn(C5CCCCC5)c4)CC3)c2c1` [Example 18], which Ki is on record?
**A.** 34 nM

**Q.** Which Ki does the source give for `COc1ccc2[nH]cc(C3CCN(CCc4cnn(C)c4)CC3)c2c1` [Example 5, 5-methoxy-3-<1-<2-<1-methyl-1H-pyrazol-4-yl>ethyl>-4-piperidinyl>-1H-indoleoxalate] here?
**A.** 9.9 nM

**Q.** For `CC(C)n1cc(CCN2CCC(c3c[nH]c4ccccc34)CC2)cn1` [Example 6, 3-<1-<2-<1-(1-methylethyl)-1H-pyrazol-4-yl>ethyl>-4-piperidinyl>-1H-indolehydrochloride], which Ki is on record?
**A.** 4.5 nM

**Q.** Which Ki does the source give for `CCCn1cc(CCN2CCC(c3c[nH]c4ccc(F)cc34)CC2)cn1` [Example 13, 5-fluoro-3-<1-<2-<1-propyl-1H-pyrazol-4-yl>ethyl>-4-piperidinyl>-1H-indoleoxalate] here?
**A.** 6 nM

**Q.** With `Fc1ccc2[nH]cc(C3CCN(CCc4cc[nH]c4)CC3)c2c1` [Example 44, 5-fluoro-3-<1-<2-<1H-pyrrol-3-yl>ethyl>-4-piperidinyl>-1H-indole oxalate] as the molecule, how does the Ki read?
**A.** 53.9 nM

**Q.** `COc1ccc2[nH]cc(C3CCN(CCc4cnn(-c5ccccc5)c4)CC3)c2c1` [Example 27, 5-methoxy-3-<1-<2-<1-phenyl-1H-pyrazol-4-yl>ethyl>-4-piperidinyl>-1H-indoleoxalate] was tested. Which Ki did it give?
**A.** 9.5 nM

**Q.** `CCCn1cc(CCN2CCC(c3c[nH]c4ccc(Cl)cc34)CC2)cn1` [Example 14, 5-chloro-3-<1-<2-<1-propyl-1H-pyrazol-4-yl>ethyl>-4-piperidinyl>-1H-indoleoxalate] was tested. Which Ki did it give?
**A.** 5.7 nM

**Q.** For `Fc1ccc2[nH]cc(C3CCN(CCc4cnn(CC5CC5)c4)CC3)c2c1` [Example 20, 5-fluoro-3-<1-<2-<1-cyclopropylmethyl-1H-pyrazol-4-yl>ethyl>-4-piperidinyl>-1H-indole hydrochloride], which Ki is on record?
**A.** 8.9 nM

**Q.** `COc1ccc2[nH]cc(C3CCN(CCc4cnn(C(C)C)c4)CC3)c2c1` [Example 10, 5-methoxy-3-<1-<2-<1-(1-methylethyl)-1H-pyrazol-4-yl>ethyl>-4-piperidinyl>- 1H-indole oxalate] was tested. Which Ki did it give?
**A.** 6.2 nM

**Q.** Which Ki does the source give for `Fc1ccc2[nH]cc(C3CCN(CCc4cnn(C5CCCCC5)c4)CC3)c2c1` [Example 17, 5-fluoro-3-<1-<2-<1-cyclohexyl-1H-pyrazol-4-yl>ethyl>-4-piperidinyl>-1H-indole oxalate] here?
**A.** 33.2 nM

**Q.** With `CC(C)n1cc(CCN2CCC(c3c[nH]c4ccc(F)cc34)CC2)cn1` [Example 7, 5-fluoro-3-<1-<2-<1-(1-methylethyl)-1H-pyrazol-4-yl>ethyl>-4-piperidinyl>-1H-indole oxalate] as the molecule, how does the Ki read?
**A.** 4.9 nM

**Q.** With `Clc1ccc2[nH]cc(C3CCN(CCc4cnn(-c5ccc(I)cc5)c4)CC3)c2c1` [Example 38, 5-chloro-3-<1-<2-<1-(4-iodophenyl)-1H-pyrazol-4-yl>ethyl>-4-piperidinyl>-1H-indole oxalate] as the molecule, how does the Ki read?
**A.** 77.4 nM

**Q.** `Clc1ccc2[nH]cc(C3CCN(CCCc4cn[nH]c4)CC3)c2c1` [Example 54, 5-chloro-3-<1-<3-<1H-pyrazol-4-yl>propyl>-4-piperidinyl>-1H-indole oxalate] was tested. Which Ki did it give?
**A.** 42 nM

**Q.** For `CC(C)n1cc(CCN2CCC(c3c[nH]c4ccc(O)cc34)CC2)cn1` [Example 50, 5-hydroxy-3-<1-<2-<1-(1-methylethyl)-1H-pyrazol-4-yl>ethyl>-4-piperidinyl>-1H-indole], which Ki is on record?
**A.** 2.3 nM

**Q.** With `CC(C)n1cc(CCN2CCC(c3c[nH]c4ccc(Cl)cc34)CC2)cn1` [Example 8, 5-chloro-3-<1-<2-<1-(1-methylethyl)-1H-pyrazol-4-yl>ethyl>-4-piperidinyl>-1H-indole] as the molecule, how does the Ki read?
**A.** 4.1 nM

**Q.** `Cc1ccc(-n2cc(CCN3CCC(c4c[nH]c5ccc(Cl)cc45)CC3)cn2)cc1` [Example 43, 5-chloro-3-<1-<2-<1-(4-methylphenyl)-1H-pyrazol-4-yl>ethyl>-4-piperidinyl>- 1H-indole] was tested. Which Ki did it give?
**A.** 37.7 nM

**Q.** For `Oc1ccc2[nH]cc(C3CCN(CCc4cnn(C5CCCCC5)c4)CC3)c2c1` [Example 51, 5-hydroxy-3-<1-<2-<1-cyclohexyl-1H-pyrazol-4-yl>ethyl>-4-piperidinyl>-1H-indole oxalate], which Ki is on record?
**A.** 4.4 nM
